In US20030105095A1 (CHEIL JEDANG Corporation, priority 2001, published 2003):

Experiments:
cyclooxygenase-2 = target: T1, cyclooxygenase-2 (Mus musculus, UniProt Q05769); test: Cyclooxygenase-2 inhibition in aspirin-treated, LPS-induced mouse peritoneal macrophages (PGE2 ELISA); assay type: cell-based
T1 construct: blended with 3% FBS-RPMI 1640 medium containing 10 μg/ml of LPS in each well; endogenous in cells; host or cells: primary mouse peritoneal macrophages, pretreated with 500 μM aspirin and induced with LPS
T1 sequence (Q05769 18-604): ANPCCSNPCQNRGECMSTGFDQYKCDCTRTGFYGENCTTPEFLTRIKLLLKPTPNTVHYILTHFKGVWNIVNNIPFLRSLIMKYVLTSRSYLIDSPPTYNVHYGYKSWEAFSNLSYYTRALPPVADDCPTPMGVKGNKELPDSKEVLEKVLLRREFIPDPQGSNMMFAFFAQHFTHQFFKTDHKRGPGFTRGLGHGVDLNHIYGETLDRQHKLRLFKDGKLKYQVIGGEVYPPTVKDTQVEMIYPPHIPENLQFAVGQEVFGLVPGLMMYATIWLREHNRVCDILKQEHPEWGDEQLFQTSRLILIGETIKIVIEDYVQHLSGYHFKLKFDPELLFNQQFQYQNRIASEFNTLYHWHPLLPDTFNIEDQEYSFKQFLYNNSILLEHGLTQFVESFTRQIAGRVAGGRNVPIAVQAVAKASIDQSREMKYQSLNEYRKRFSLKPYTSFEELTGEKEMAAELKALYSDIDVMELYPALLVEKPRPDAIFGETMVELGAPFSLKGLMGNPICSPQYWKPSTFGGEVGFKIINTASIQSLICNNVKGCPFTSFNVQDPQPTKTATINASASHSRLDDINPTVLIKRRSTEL
Experimental: Second, the cyclooxygenase-2 was examined through the following procedure.
(§1) Peritoneal fluid in which macrophages were suspended was extracted from a mouse peritoneal cavity and centrifuged at 4° C., 1,000 rpm for 2 minutes. Then, the supernatant was removed, suspended using 20 ml of incomplete RPMI medium [PC/SM (penicilin/streptomycin)] and again centrifuged under the same condition. […] Then, the cell number was calculated with the hemocytometer and adjusted to reach 1×10^6 cells/ml of cell concentration in the final cell suspension. The resulting suspension was treated with aspirin, adjusting 500 μM of final concentration and poured into each well of 96-well plate in 100 μl respectively. Again, it was left with the incubator at 37° C. in 5% CO2 for about 2 hours in order to attach macrophages. […] The resulting cell was cultivated with the incubator at 37° C. in 5% CO2 for about 12˜16 hours. Then, arachidonic acid was added, adjusting to 10 μM of a final concentration and incubated at 37° C. for more 10 minutes and the supernatant of the reacted solution (˜180 μl) was recovered to finish the reaction.

cyclooxygenase-1 = target: T2, cyclooxygenase-1 (Mus musculus, UniProt P22437); test: Cyclooxygenase-1 inhibition in mouse peritoneal macrophages (PGE2 ELISA); assay type: cell-based
T2 construct: endogenous in cells; host or cells: primary mouse peritoneal macrophages (unstimulated)
T2 sequence (P22437 27-602): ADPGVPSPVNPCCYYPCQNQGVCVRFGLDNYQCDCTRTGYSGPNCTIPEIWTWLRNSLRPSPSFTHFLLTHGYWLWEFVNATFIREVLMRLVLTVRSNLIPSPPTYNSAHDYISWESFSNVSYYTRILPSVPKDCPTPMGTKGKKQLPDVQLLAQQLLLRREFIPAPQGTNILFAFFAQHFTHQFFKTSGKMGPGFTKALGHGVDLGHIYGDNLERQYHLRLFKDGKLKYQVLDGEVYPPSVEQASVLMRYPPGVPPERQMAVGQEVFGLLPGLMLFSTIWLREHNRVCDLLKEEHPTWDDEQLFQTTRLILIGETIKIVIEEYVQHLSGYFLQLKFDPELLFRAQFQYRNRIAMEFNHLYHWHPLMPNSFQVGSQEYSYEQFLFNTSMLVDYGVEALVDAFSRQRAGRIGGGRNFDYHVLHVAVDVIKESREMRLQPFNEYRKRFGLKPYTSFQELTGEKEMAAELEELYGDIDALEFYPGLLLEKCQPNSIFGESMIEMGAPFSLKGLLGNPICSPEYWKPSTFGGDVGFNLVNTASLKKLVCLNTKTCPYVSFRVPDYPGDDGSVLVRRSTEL
Experimental: First of all, the cyclooxygenase-1 was examined through the following procedure.
as §1, with “[including PC/SM” for “[PC/SM”, “was” for “was treated with aspirin, adjusting 500 μM of final concentration and”, “and” for “in 100 μl respectively. Again, it was”

Row | Inhibitory effects of cyclooxygenase (COX): COX-2 (cyclooxygenase-2; 30 nM) | Inhibitory effects of cyclooxygenase (COX): COX-2 (cyclooxygenase-2; 100 nM) | Inhibitory effects of cyclooxygenase (COX): COX-2 (cyclooxygenase-2; 300 nM) | Inhibitory effects of cyclooxygenase (COX): COX-1 (cyclooxygenase-1; 3 μM) [% inhibition] | Inhibitory effects of cyclooxygenase (COX): COX-1 (cyclooxygenase-1; 10 μM) [% inhibition] | Inhibitory effects of cyclooxygenase (COX): COX-1 (cyclooxygenase-1; 30 μM) [% inhibition] | Compound
1 | 47.6 % inhibition | 60.3 % inhibition | 68.4 % inhibition | 36.8 | 40.5 | 41.1 | CS(=O)(=O)c1ccc(-c2ccc(OCc3ccccc3)c(OCc3ccccc3)c2)cc1 [Example 7, 4′-methanesulfonyl-3,4-dibenzyloxy-biphenyl]
2 | 5.0 % inhibition | 5.5 % inhibition | 10.1 % inhibition | 9.4 | 10.1 | 23.4 | CCCOc1ccc(-c2ccc(S(C)(=O)=O)cc2)cc1OCCC [Example 3, 4′-methanesulfonyl-3,4-dipropyloxy-biphenyl]
3 | ˜0 % inhibition | ˜0 % inhibition | ˜0 % inhibition | 14.7 | 20.9 | 22.7 | CCCCOc1ccc(-c2ccc(S(C)(=O)=O)cc2)cc1OCCCC [Example 6, 4′-methanesulfonyl-3,4-dibutyloxy-biphenyl]
4 | 46.2 % inhibition | 50.7 % inhibition | 59.7 % inhibition | 44.4 | 50.5 | 64.7 | COc1ccc(-c2ccc(S(C)(=O)=O)cc2)cc1OC [Example 1, 4′-methanesulfonyl-3,4-dimethoxy-biphenyl]
5 | 30.2 % inhibition | 33.3 % inhibition | 46.5 % inhibition | 50.3 | 58.4 | 60.4 | CS(=O)(=O)c1ccc(-c2ccc(OC3CC3)c(OC3CC3)c2)cc1 [Example 5, 4′-methanesulfonyl-3,4-dicyclopropyloxy-biphenyl]
6 | 55.2 % inhibition | 60.5 % inhibition | 76.5 % inhibition | 61.5 | 70.5 | 77.1 | CCOc1ccc(-c2ccc(S(C)(=O)=O)cc2)cc1OCC [Example 2, 4′-methanesulfonyl-3,4-diethoxy-biphenyl]
7 | 27.4 % inhibition | 42.7 % inhibition | 54.7 % inhibition | 29.7 | 40.2 | 49.7 | CS(=O)(=O)c1ccc(-c2ccc(OC3CCCC3)c(OC3CCCC3)c2)cc1 [Example 8, 4′-methanesulfonyl-3,4-dicyclopentyloxy-biphenyl]
8 | ˜0 % inhibition | ˜0 % inhibition | ˜0 % inhibition | 58.2 | 70.4 | 78.4 | CC(C)Oc1ccc(-c2ccc(S(C)(=O)=O)cc2)cc1OC(C)C [Example 4, 4′-methanesulfonyl-3,4-diisopropyloxy-biphenyl]

Row | Compound | Inhibitory effects of cyclooxygenase (COX): COX-2 (cyclooxygenase-2; 30 nM) | Inhibitory effects of cyclooxygenase (COX): COX-2 (cyclooxygenase-2; 100 nM) | Inhibitory effects of cyclooxygenase (COX): COX-2 (cyclooxygenase-2; 300 nM) | Inhibitory effects of cyclooxygenase (COX): COX-1 (cyclooxygenase-1; 3 μM) [% inhibition] | Inhibitory effects of cyclooxygenase (COX): COX-1 (cyclooxygenase-1; 10 μM) [% inhibition] | Inhibitory effects of cyclooxygenase (COX): COX-1 (cyclooxygenase-1; 30 μM) [% inhibition]
9 | CCCCOc1cc(-c2ccc(S(C)(=O)=O)cc2)ccc1OC(C)C [Example 9, 3-butoxy-4-isopropoxy-4′-methanesulfonyl-biphenyl] | 44.2 % inhibition | 59.8 % inhibition | 70.4 % inhibition | 49.8 | 66.4 | 70.8
